For assay [1], the target named is T1, β2AR tagged at its carboxyl terminus (PathHunter ECA) (Homo sapiens, UniProt P07550).
T1 construct: gene ADRB2; C-terminal complementary β-galactosidase fragment tag; DiscoverX PathHunter CHO cells co-expressing β-arrestin2 fused to fragment-deficient β-galactosidase (read-out)
As to the kind of experiment: β-arrestin2 recruitment, PathHunter enzyme complementation. To be noted: […] min, […] °C, CHO cells. The class given is cell-based.

Assay [2] addresses T2, human β2AR (β2-adrenergic receptor) (Homo sapiens, UniProt P07550).
T2 construct: gene ADRB2; full-length receptor cDNA stably expressed in CHW-1102 (CHW-β2) cells, ~2,000 fmol/mg
Put plainly: cAMP accumulation, competitive immunoassay. In kind it is cell-based. The source says:
cAMP accumulation, competitive immunoassay on human β2AR (β2-adrenergic receptor)
(In general: Cyclic AMP is a second messenger, typically raised through Gs and lowered through Gi signalling.)

The mark [3] stands for this setting: agonist, […] min, […] °C, IBMX […], whole CHW-β[…] cells.

Where two headings read alike, the source gives them in different places.

The values below come from article PMC8670521, “Identification and characterization of an atypical Gαs-biased β2AR agonist that fails to evoke airway smooth muscle cell tachyphylaxis” (Proceedings of the National Academy of Sciences of the …, 2021).

In general, EC50 refers to the concentration that produces a half-maximal response.

T2 sequence (P07550 whole entry): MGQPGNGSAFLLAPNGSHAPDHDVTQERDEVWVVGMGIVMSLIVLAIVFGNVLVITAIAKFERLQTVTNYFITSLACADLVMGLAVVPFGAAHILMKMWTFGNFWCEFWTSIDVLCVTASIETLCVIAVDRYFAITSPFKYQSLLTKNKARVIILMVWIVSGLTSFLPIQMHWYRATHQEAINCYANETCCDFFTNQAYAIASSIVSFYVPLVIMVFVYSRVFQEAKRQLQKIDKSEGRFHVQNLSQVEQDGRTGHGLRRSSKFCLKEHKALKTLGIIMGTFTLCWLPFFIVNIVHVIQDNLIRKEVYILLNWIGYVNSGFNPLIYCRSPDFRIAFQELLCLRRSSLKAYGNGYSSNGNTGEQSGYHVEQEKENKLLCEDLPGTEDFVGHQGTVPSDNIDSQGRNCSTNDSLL
T1 sequence (P07550 whole entry, the tested form may be a part): as the sequence (P07550 whole entry) above

For `COc1ccc(CC2=N[C@@H](CCCCN3C[C@H](Cc4ccc(O)cc4)N(CCCCC4CCCCC4)C3=O)CN2)cc1` [C1-S], the “β-arrestin2 recruitment, PathHunter enzyme complementation” value in assay [1] is recorded as “lack of a response to C1-S in the β-arrestin ECA”. The compound also gave an EC50 in assay [2] of 4.23 ± 1 µM.

As for `CC(C)CC1=N[C@@H](CCCCN2C[C@H](Cc3ccc(O)cc3)N(CCCCC3CCCCC3)C2=O)CN1` [C4-S], the EC50 in assay [2] (setting [3]) was determined as 3.52 ± 0.52 µM.

Consider `CCOc1ccc(CC2=N[C@@H](CCCCN3C[C@H](Cc4ccc(O)cc4)N(CCCCC4CCCCC4)C3=O)CN2)cc1` [C3-S], for which the EC50 in assay [2] (setting [3]) came out at 4.31 ± 1.69 µM. Take `COc1ccc(CC2=N[C@@H](CCCCN3C[C@H](Cc4ccc(O)cc4)N(CCCCC4CCCCC4)C3=O)CN2)cc1OC` [C2-S]: in assay [2] (setting [3]), the EC50 is 6.67 ± 2.01 µM.
